Results published in publication PMC9250534, “Synthesis and direct assay of large macrocycle diversities by combinatorial late-stage modification at picomole scale” (Nature Communications, 2022).
Numbered stars: 1 amine (or outer) side, 2 acyl side, 3 side chain; on linkers, the order of the positions; unused ones are H or OH. Bridge positions count the residues as written; N and C are the ends. Square brackets hold non-standard residues; d marks the D form. Peptide text beside a SMILES is read from it. * marks the point of attachment. Indane2carbonyl = O=C(C1Cc2ccccc2C1)*; 2Thenoyl(5-Cl) = O=C(c1ccc(Cl)s1)*; Pentanoyl(4-Me) = CC(C)CCC(=O)*; Cysteamide = C(CS[*:3])N[*:1]; X1 = O=C(/C=C/c1ccccc1)*; Api = NC1(C(=O)O)CCNCC1; Dap = NC[C@H](N)C(=O)O; X2 = O=C(C=Cc1ccccc1)*; Mpa = O=C(O)CCS

Biological target: MDM2 (Homo sapiens, UniProt Q00987)
Assay: MDM2 binding screen: displacement of fluorescent p53 peptide probe FP53 (fluorescence polarization)
Conditions: for fraction fluorescent probe displaced, Screen: initial screen; for fraction fluorescent probe displaced, Screen / fraction fluorescent probe displaced, Replicate: crude macrocycle reactions
Summary of the method: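 Single-point screen: one fluorescence anisotropy reading at 25 °C (485 nm excitation, 535 nm emission) per macrocycle. Crude macrocycle reactions, final 10 µM, were scored for displacing the fluorescent p53 peptide from human MDM2.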

[1] = 10 µM macrocycle concentration, crude acylated macrocycle (scaffold Mpa-AA1-AA2-AA3 x carboxylic acid), p53-based fluorescent peptide, human MDM2

MDM2, sequence (Q00987 whole entry): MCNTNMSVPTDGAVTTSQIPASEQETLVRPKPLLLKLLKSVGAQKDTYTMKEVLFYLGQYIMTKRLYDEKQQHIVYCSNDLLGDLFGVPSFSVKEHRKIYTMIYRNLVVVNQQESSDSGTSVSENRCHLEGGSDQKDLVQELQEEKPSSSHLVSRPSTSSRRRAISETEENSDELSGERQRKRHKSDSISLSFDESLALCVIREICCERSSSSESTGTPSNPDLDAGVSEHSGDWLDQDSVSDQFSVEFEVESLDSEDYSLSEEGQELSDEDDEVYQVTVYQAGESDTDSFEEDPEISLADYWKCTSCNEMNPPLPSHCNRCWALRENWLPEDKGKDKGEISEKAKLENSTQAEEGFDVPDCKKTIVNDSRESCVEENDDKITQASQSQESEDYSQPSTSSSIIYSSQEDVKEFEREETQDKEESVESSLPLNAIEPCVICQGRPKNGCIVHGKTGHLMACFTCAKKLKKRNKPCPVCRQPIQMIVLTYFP

For O=C1CCSSCCNC(=O)[C@@H]2CCCN2C(=O)[C@H](Cc2ccccc2)NC(=O)C2(CCN(C(=O)c3ccc(Cl)s3)CC2)N1 [X D6 F B1 Acid 14] ([Mpa][Api](2Thenoyl(5-Cl))FP-Cysteamide; disulfide 1-C), the “fraction fluorescent probe displaced, Screen” value (Acid 14) was 0.053 and the “fraction fluorescent probe displaced, Replicate” value (Acid 14, replicate) was 0.07.
In the case of O=C1CCNC(=O)C2CN(C(=O)c3ccc(Cl)s3)CCN2C(=O)C(Cc2c[nH]c3ccccc23)NC(=O)CCSSCCN1 (stereo not drawn) [X W D7 B2 Acid 14], the “fraction fluorescent probe displaced, Screen” value (Acid 14) is reported as 0.26 and the “fraction fluorescent probe displaced, Replicate” value (Acid 14, replicate) is reported as 0.10.
With O=C1CCSSCCNC(=O)c2cccc(c2)CNC(=O)C2(CCN(C(=O)c3ccc(Cl)s3)CC2)NC(=O)[C@H](Cc2ccccc2)N1 [X F D6 B5 Acid 14] the “fraction fluorescent probe displaced, Screen” value (Acid 14) was 0.053 and the “fraction fluorescent probe displaced, Replicate” value (Acid 14, replicate) was 0.0211.
For O=C1CCSSCCNC(=O)C2CN(C(=O)c3ccc(Cl)cc3)CCN2C(=O)C(Cc2ccccc2)NC(=O)CCN1 (mixture of isomers) [X B2 F D7 Acid 25], the “fraction fluorescent probe displaced, Screen” value (Acid 25) was -0.07 and the “fraction fluorescent probe displaced, Replicate” value (Acid 25, replicate) was 0.0465.
In the case of O=C(/C=C/c1ccccc1)NC[C@@H]1NC(=O)[C@H](Cc2c[nH]c3ccccc23)NC(=O)CCSSCCNC(=O)[C@@H]2CCCN2C1=O [X W D3 B1 Acid 91] ([Mpa]W[Dap](X1)P-Cysteamide; disulfide 1-C), the “fraction fluorescent probe displaced, Screen” value (Acid 91) is reported as 0.11 and the “fraction fluorescent probe displaced, Replicate” value (Acid 91, replicate) is reported as -0.00827.
For O=C1CCSSCCNC(=O)[C@H](Cc2c[nH]c3ccccc23)NC(=O)C2(CCN(C(=O)/C=C/c3ccccc3)CC2)NC(=O)CCN1 [X B2 D6 W Acid 91], the “fraction fluorescent probe displaced, Screen” value (Acid 91) was 0.16 and the “fraction fluorescent probe displaced, Replicate” value (Acid 91, replicate) was 0.07.
With O=C(NC[C@@H]1NC(=O)[C@@H]2CCCN2C(=O)CCSSCCNC(=O)[C@H](Cc2ccccc2)NC1=O)C1Cc2ccccc2C1 [X-B1-D3-F + A76] ([Mpa]P[Dap](Indane2carbonyl)F-Cysteamide; disulfide 1-C) the “fraction fluorescent probe displaced” value [1] was 0.03186.
For O=C1NCCSSCCC(=O)N2CCN(C(=O)c3ccc(Cl)s3)CC2C(=O)NC(Cc2ccccc2)C(=O)N2CCCC1C2 (stereo not drawn) [X D7 F B4 + Acid 14], the “fraction fluorescent probe displaced” value (crude reaction of macrocycle scaffold with Acid 14, (initial screen)) was 0.0241 and the “fraction fluorescent probe displaced” value (crude reaction of macrocycle scaffold with Acid 14, replicate) was -0.00432.
For O=C1CCSSCCNC(=O)C2(CCN(C(=O)/C=C/c3ccccc3)CC2)NC(=O)CCNC(=O)[C@H](Cc2c[nH]c3ccccc23)N1 [X W B2 D6 Acid 91], the “fraction fluorescent probe displaced, Screen” value (Acid 91) was 0.22 and the “fraction fluorescent probe displaced, Replicate” value (Acid 91, replicate) was 0.09.
O=C1NC2(CCN(C(=O)C=Cc3ccccc3)CC2)C(=O)NCCSSCCC(=O)N2CCCC2C(=O)NC1Cc1ccccc1 (stereo not drawn) [X B1 F D6 Acid 91] ([Mpa]PF[Api](X2)-Cysteamide; disulfide 1-C; configuration not given here) was tested, and the “fraction fluorescent probe displaced, Screen” value (Acid 91) was 0.00268 and the “fraction fluorescent probe displaced, Replicate” value (Acid 91, replicate) was 0.04.
In the case of O=C1CCNC(=O)[C@H](Cc2ccccc2)NC(=O)CCSSCCNC(=O)[C@H](CNC(=O)c2ccc(Cl)s2)N1 [X F B2 D3 Acid 14], the “fraction fluorescent probe displaced, Screen” value (Acid 14) is reported as 0.14 and the “fraction fluorescent probe displaced, Replicate” value (Acid 14, replicate) is reported as 0.12.
CC(C)CCC(=O)NC[C@@H]1NC(=O)[C@@H]2CCCN2C(=O)CCSSCCNC(=O)[C@H](Cc2c[nH]c3ccccc23)NC1=O [X-B1-D3-W + A68] ([Mpa]P[Dap](Pentanoyl(4-Me))W-Cysteamide; disulfide 1-C) was tested, and the “fraction fluorescent probe displaced” value [1] was -0.02228.
O=C1CCSSCCNC(=O)c2cccc(c2)CNC(=O)[C@H](Cc2c[nH]c3ccccc23)NC(=O)C2(CCN(C(=O)/C=C/c3ccccc3)CC2)N1 [X D6 W B5 Acid 91] was tested, and the “fraction fluorescent probe displaced, Screen” value (Acid 91) was -0.05 and the “fraction fluorescent probe displaced, Replicate” value (Acid 91, replicate) was 0.07.
